Where “and” joins values, the source holds several entries; their conditions need not be identical. Equal entries are not always repeated.
Experiments:
[1] = target: Acetylcholinesterase (AChE) (Electrophorus electricus, UniProt O42275); assay: biochemical; settings: Ellman's method, triplicate; read-out: Acetylcholinesterase (AChE) IC50 ± SEM
Experimental: (§1) Modified Ellman’s method was adopted to investigate the inhibitory potential of newly synthesized compounds against cholinesterase enzymes. The assay protocol involved 96-well plates (100 μL per well). Each well contained 20 μL of assay buffer solution, 10 μL of test sample, and 10 μL of 0.5 U/mg of AChE (for AChE inhibition assay) or 10 μL of 3.4 U/mg of BChE (for BChE inhibition assay). This mixture was incubated at 25 °C for 10 min followed by the addition of substrate (10 μL). For AChE inhibition assay, acetylthiocholine iodide (ATCI, 1 mM) while for BChE assay, butyrylthiocholine chloride (BTCCl, 1 mM), was added. This mixture was incubated for 15 min at 37 °C. Ellman reagent (5,5′-dithio-bis(2-nitrobenzoic acid), DTNB, 3 mM) was added. […] Blank assay was also performed. All the analyses were performed in triplicate. IC50 values were also calculated for the synthesized compounds in GraphPad prism 5.0. using nonlinear regression method.

[2] = target: Butyrylcholinesterase (BChE) (Equus caballus, UniProt P81908); assay: biochemical; settings: Ellman's method, triplicate; read-out: Butyrylcholinesterse (BChE) IC50 ± SEM
Butyrylcholinesterase (BChE), sequence (P81908 whole entry): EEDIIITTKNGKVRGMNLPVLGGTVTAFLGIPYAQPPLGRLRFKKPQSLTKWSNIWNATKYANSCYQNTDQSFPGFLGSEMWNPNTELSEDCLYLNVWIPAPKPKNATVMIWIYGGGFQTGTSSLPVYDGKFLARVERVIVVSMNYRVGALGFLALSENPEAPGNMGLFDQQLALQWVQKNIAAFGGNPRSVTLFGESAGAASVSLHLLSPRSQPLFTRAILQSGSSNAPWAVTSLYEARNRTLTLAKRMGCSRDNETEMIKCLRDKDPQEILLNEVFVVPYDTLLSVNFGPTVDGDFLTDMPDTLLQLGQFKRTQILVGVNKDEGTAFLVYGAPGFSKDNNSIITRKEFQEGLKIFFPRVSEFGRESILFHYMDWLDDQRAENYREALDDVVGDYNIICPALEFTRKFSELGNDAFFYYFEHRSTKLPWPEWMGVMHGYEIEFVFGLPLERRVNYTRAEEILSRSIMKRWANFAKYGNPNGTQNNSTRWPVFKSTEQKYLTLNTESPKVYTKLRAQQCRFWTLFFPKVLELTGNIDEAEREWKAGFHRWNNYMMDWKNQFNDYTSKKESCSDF
Experimental: as §1

[3] = In vitro cytotoxicity, MTT assay; format: cell-based; settings: human, HepG2 cells, 24 h, control = 100, read-out: Cell Viability; for viability at 24 h, 50 μg/mL: HepG2, 50 μg/mL; for viability at 24 h, 100 μg/mL: HepG2, 100 μg/mL; for viability at 24 h, 200 μg/mL: HepG2, 200 μg/mL; for viability at 24 h, 500 μg/mL: HepG2, 500 μg/mL; for viability at 24 h, 1000 μg/mL: HepG2, 1000 μg/mL
Experimental: (§2) HepG2 cell line was obtained from the cell culture laboratory established in The University of Lahore. These cell lines were preserved in cryo vials present in liquid nitrogen. Cryo vials were revived for further processing.
(§3) The cryo vials obtained from liquid nitrogen cylinder were thawed. Then HepG2 cells were cultured in the culturing flask in which DMEM-HG along with 10% fetal bovine serum (FBS), supplemented with […] (Sigma) and 100 U/mL streptomycin (Sigma) were added. Cultures were maintained in a humidified incubator supplied with 5% CO2 at 37 °C. Experiments were performed in triplicates. When cultured HepG2 cells achieved 70–80% confluence their subculturing was conducted. For splitting, the cells attached to the walls of the culturing flask were washed with 1× phosphate buffer saline (PBS) and incubated with 0.05% trypsin-EDTA until cells detached from the surface of culturing flask. The detachment of the cells was confirmed by observing the flask under the inverted microscope. A few drops of FBS were added to the flask and mixed well by stirring. The mixture was centrifuged at 2000 rpm for 5 min. After centrifugation the supernatant was removed, and pellet was resuspended. HepG2 cells were cultured onto 96-well plates for measurement of cell viability. Treatment was given for both compounds at a concentration of 0–1000 µg/mL for 24 h.
(§4) After 4 h formazan crystals were solubilized with 10% sodium dodecylsulphate (SDS) (Invitrogen Inc.) and absorbance was taken at 570 nm. Percentage viability was calculated according to the following formula:% Viable cells = ((abs sample − abs blank) / (abs control − abs blank)) × 100 (1) where abs stands for absorbance.

HepG2 cells = assay: In vitro cytotoxicity, MTT assay; format: cell-based; settings: HepG2, MTT, 0–1000 µg/mL, 24 h
Experimental: as §2, §3, §4

Acetylcholinesterase (AChE), sequence (O42275 24-633): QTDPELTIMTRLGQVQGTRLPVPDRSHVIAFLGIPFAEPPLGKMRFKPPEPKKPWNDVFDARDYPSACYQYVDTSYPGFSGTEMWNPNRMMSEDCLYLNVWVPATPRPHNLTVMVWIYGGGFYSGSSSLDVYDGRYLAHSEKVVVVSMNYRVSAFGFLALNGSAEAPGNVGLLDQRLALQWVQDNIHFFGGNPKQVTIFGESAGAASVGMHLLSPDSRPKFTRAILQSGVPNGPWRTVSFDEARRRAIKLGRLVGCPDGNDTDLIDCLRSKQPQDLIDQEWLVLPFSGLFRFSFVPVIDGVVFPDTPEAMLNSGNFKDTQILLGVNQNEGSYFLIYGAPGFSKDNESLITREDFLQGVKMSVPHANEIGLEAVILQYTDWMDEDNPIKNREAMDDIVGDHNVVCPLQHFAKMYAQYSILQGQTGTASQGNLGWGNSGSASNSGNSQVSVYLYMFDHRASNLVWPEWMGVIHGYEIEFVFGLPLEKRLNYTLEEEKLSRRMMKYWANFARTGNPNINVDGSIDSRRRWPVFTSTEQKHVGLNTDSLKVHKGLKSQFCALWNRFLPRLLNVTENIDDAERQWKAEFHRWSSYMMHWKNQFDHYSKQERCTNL

| Compound | IC50 [1] | IC50 [2] | viability at 24 h, 50 μg/mL [3] [%] | viability at 24 h, 100 μg/mL [3] [%] | viability at 24 h, 200 μg/mL [3] [%] | viability at 24 h, 500 μg/mL [3] [%] | viability at 24 h, 1000 μg/mL [3] [%] | Status (HepG2 cells) |
| --- | --- | --- | --- | --- | --- | --- | --- | --- |
| Cc1ccc2nc(N3CCCCC3)c(C=NNC(=S)Nc3cccc(F)c3)cc2c1 [Compound 5i, N-(3-Fluorophenyl)-2-((6-methyl-2-(piperidin-1-yl)quinolin-3-yl)methylene)hydrazine carbothioamide] | 24.1 ± 0.43 µM | 36.23 ± 0.02 µM | 118 | 99.4 | 97.2 | 99.4 | 149 | Proliferative |
| Cc1cccc2cc(C=NNC(=S)Nc3ccc(F)cc3)c(N3CCCCC3)nc12 [Compound 6j, N-(4-Fluorophenyl)-2-((8-methyl-2-(piperidin-1-yl)quinolin-3-yl)methylene)hydrazine carbothioamide] | 56.66 ± 0.41 µM | 51 ± 0.52 µM | 103 | 93.7 | 94.8 | 108 | 114 | Non-cytotoxic |
| Cc1cccc2cc(C=NNC(=S)Nc3cccc(Cl)c3)c(N3CCCCC3)nc12 [Compound 6f, N-(3-Chlorophenyl)-2-((8-methyl-2-(piperidin-1-yl)quinolin-3-yl)methylene)hydrazine carbothioamide] | < 20 µM and 9.68 µM | < 20 µM and 11.6 µM | 110 | 110 | 109 | 139 | 189 | Proliferative |
| Cc1cccc2cc(C=NNC(=S)Nc3ccccc3)c(N3CCCCC3)nc12 [Compound 6b, 2-((8-Methyl-2-(piperidin-1-yl)quinolin-3-yl)methylene)-N-phenylhydrazinecarbothioamide] | 25.9 ± 0.45 µM | 28.8 ± 0.63 µM | 89.9 | 95.7 | 92.8 | 112 | 69.2 | Cytotoxic |
| Cc1ccc(NC(=S)NN=Cc2cc3cc(C)ccc3nc2N2CCCCC2)c(C)c1 [Compound 5c, N-(2,4-Dimethylphenyl)-2-((6-methyl-2-(piperidin-1-yl)quinolin-3-yl)methylene)hydrazine carbothioamide] | 42.3 ± 0.99 µM | 37.2 ± 0.83 µM | 105 | 109 | 122 | 188 | 262 | Proliferative |
| Cc1ccc2nc(N3CCCCC3)c(C=NNC(=S)Nc3cccc(Cl)c3)cc2c1 [Compound 5f, N-(3-Chlorophenyl)-2-((6-methyl-2-(piperidin-1-yl)quinolin-3-yl)methylene)hydrazine carbothioamide] | 23.9 ± 0.25 µM | 24.6 ± 0.57 µM | 84.8 | 94.9 | 93.9 | 93.2 | 56.9 | Cytotoxic |
| Cc1ccc2nc(N3CCCCC3)c(C=NNC(=S)NCCN3CCOCC3)cc2c1 [Compound 5m, 2-((6-Methyl-2-(piperidin-1-yl)quinolin-3-yl)methylene)-N-(2-morpholinoethyl)hydrazine carbothioamide] | 62.3 ± 0.68 µM | 59.35 ± 0.13 µM | 94 | 102 | 109 | 107 | 115 | Non-cytotoxic |
| Cc1cccc2cc(C=NNC(=S)Nc3cccc(F)c3)c(N3CCCCC3)nc12 [Compound 6i, N-(3-Fluorophenyl)-2-((8-methyl-2-(piperidin-1-yl)quinolin-3-yl)methylene)hydrazine carbothioamide] | 15.8 ± 1.3 µM | 51.11 ± 0.28 µM | 95.5 | 102 | 131 | 112 | 186 | Proliferative |
| Cc1cccc2cc(C=NNC(=S)NCCN3CCOCC3)c(N3CCCCC3)nc12 [Compound 6m, 2-((8-Methyl-2-(piperidin-1-yl)quinolin-3-yl)methylene)-N-(2-morpholinoethyl)hydrazine carbothioamide] | 21 ± 2.3 µM | 35.1 ± 0.77 µM | 97.9 | 96.8 | 95.3 | 97.4 | 87.6 | Cytotoxic |
| CCc1ccc(NC(=S)NN=Cc2cc3cc(C)ccc3nc2N2CCCCC2)cc1 [Compound 5k, N-(4-Ethylphenyl)-2-((6-methyl-2-(piperidin-1-yl)quinolin-3-yl)methylene)hydrazine carbothioamide] | 30.6 ± 0.56 µM | 32 ± 0.87 µM | 111 | 110 | 99.6 | 106 | 132 | Proliferative |
| Cc1ccc2nc(N3CCCCC3)c(C=NNC(=S)Nc3ccc(F)cc3)cc2c1 [Compound 5j, N-(4-Fluorophenyl)-2-((6-methyl-2-(piperidin-1-yl)quinolin-3-yl)methylene)hydrazine carbothioamide] | 28.2 ± 0.94 µM | 42.4 ± 0.44 µM | 93.4 | 98.1 | 107 | 138 | 166 | Proliferative |
